This note sets out measurements from ChEMBL document CHEMBL3352725, “An uncharged oxetanyl sulfoxide as a covalent modifier for improving aqueous solubility” (ACS Med Chem Lett, 2014).

Molecules are shown by their SMILES. Converted amounts (≈) assume the structure as drawn.

The first data set is described as follows: Metabolic stability in mouse liver microsomes assessed as compound remaining after 1 hr. The class given is ADME. The conditions noted are these: read-out: Stability. A general note: Microsomes from liver hold many membrane-bound enzymes, among them those of drug oxidation.
With `CC(C)C[C@@H](/C=C/CC(=O)NC1CC(C)(C)N([O])C(C)(C)C1)NC(=O)OCC[S+]([O-])CC1(C)COC1` (mixture of isomers), the remaining at 1 h worked out at 16%.

The nature of a further data set: Aqueous solubility of the compound in H2O after 24 hrs incubation at 30 degC by LCMS analysis. The class given is physicochemical. The conditions noted are these: buffer, 24 h.
Take `Cc1ccc(Cl)c(Nc2ccccc2C(=O)O)c1Cl` [MECLOFENAMIC ACID]: the solubility – broadly, the concentration that dissolves in the medium under given conditions – was 550 µg/mL (≈ 1860 µM).

Still in this data set, the particulars now being: water.
`COc1ccc2cc([C@H](C)C(=O)OCCSCC3(C)COC3)ccc2c1`: the concentration in solution (solubility at 24 h) was 13 µg/mL (≈ 34.7 µM).
For `COc1ccc2cc([C@H](C)C(=O)OCCS(=O)(=O)CC3(C)COC3)ccc2c1`, the solubility at 24 h came out at 63 µg/mL (≈ 155 µM).
The same measure, in the same setting: the same measure for `COc1ccc2cc([C@H](C)C(=O)OCC[S+](C)[O-])ccc2c1` (some centres undefined): 270 µg/mL (≈ 843 µM).
The same measure, in the same setting: the same measure for `Cc1ccc(Cl)c(Nc2ccccc2C(=O)OCC[S+]([O-])CC2(C)COC2)c1Cl` (centres undefined): 250 µg/mL (≈ 548 µM); for `CC1(C[S+]([O-])CCOC(=O)N2CCN(c3cc4c(cc3F)c(=O)c(C(=O)O)cn4C3CC3)CC2)COC1` (centres undefined): 190 µg/mL (≈ 355 µM); for `Cc1cc(NS(=O)(=O)c2ccc(NC(=O)OCC[S+]([O-])CC3(C)COC3)cc2)no1` (centres undefined): 1000 µg/mL (≈ 2190 µM).
`CCOC(=O)Nc1ccc2sc3c(c2c1)SCCNC3=O` had a solubility at 24 h of 67 µg/mL (≈ 208 µM).
As to `CC1(C[S+]([O-])CCOC(=O)Nc2ccc3sc4c(c3c2)SCCNC4=O)COC1` (centres undefined), the concentration in solution (solubility at 24 h) was 440 µg/mL (≈ 968 µM). This solubility at 24 h is about 6.6-fold higher than that of the compound before.
The same measure, in the same setting: the figure for `CC(C)C[C@@H](/C=C/CC(=O)NC1CC(C)(C)N([O])C(C)(C)C1)NC(=O)OC(C)(C)C` is 250 µg/mL (≈ 589 µM).
On the same count and under the same terms, the figure for `COc1ccc2cc([C@H](C)C(=O)OCC[S+]([O-])CC3(C)COC3)ccc2c1` (mixture of isomers) is 820 µg/mL; for `C[C@H](CCC(=O)OCC[S+]([O-])CC1(C)COC1)[C@H]1CC[C@H]2[C@@H]3CC[C@@H]4C[C@H](O)CC[C@]4(C)[C@H]3CC[C@]12C` (mixture of isomers) it is 260 µg/mL.
On the same count and under the same terms, the same measure for `CC(C)C[C@@H](/C=C/CC(=O)NC1CC(C)(C)N([O])C(C)(C)C1)NC(=O)OCC[S+]([O-])CC1(C)COC1` (mixture of isomers): 24000 µg/mL.
